According to patent US20020055639A1, “Pyrazole derivatives as herbicides” (priority 1997, published 2002):

How the values were obtained:
Assay type in all cases: in vivo
Set-up in all cases: key: 1=total damage; 9=no action; Ratings of from 1 to 4 (especially from 1 to 3) indicate good to very good herbicidal action
Avena [1] = test: Pre-emergence herbicidal action (Example B1); conditions: 2000 g a.i./ha, sprayed immediately after sowing, evaluated after 3 weeks, scale of nine ratings
Description: (§1) Monocotyledonous and dicotyledonous test plants are sown in standard soil in plastics pots. Immediately after sowing, the test compounds, each in the form of an aqueous suspension or emulsion prepared from a 25% emulsifiable concentrate (Example F1, c) in WO 97/34485, pages 9 and 10), are applied by spraying at a rate of application of 2000 g of active ingredient/ha (500 liters water/ha). The test plants are then grown in a greenhouse under optimum conditions. After 3 weeks' test duration, the test is evaluated in accordance with a scale of nine ratings (1=total damage, 9=no action). Ratings of from 1 to 4 (especially from 1 to 3) indicate good to very good herbicidal action.
(§2) Test plants: Avena, Setaria, Sinapis, Stellaria

Setaria [2] = test: Pre-emergence herbicidal action (Example B1); conditions: 2000 g a.i./ha, sprayed immediately after sowing, evaluated after 3 weeks, scale of nine ratings
Description: as §1, §2

Sinapis [3] = test: Pre-emergence herbicidal action (Example B1); conditions: 2000 g a.i./ha, sprayed immediately after sowing, evaluated after 3 weeks, scale of nine ratings
Description: as §1, §2

Stellaria [4] = test: Pre-emergence herbicidal action (Example B1); conditions: 2000 g a.i./ha, sprayed immediately after sowing, evaluated after 3 weeks, scale of nine ratings
Description: as §1, §2

Avena [5] = test: Post-emergence herbicidal action (Example B2); conditions: 2000 g a.i./ha, sprayed at 4- to 6-leaf stage, evaluated after approximately 18 days, scale of nine ratings
Description: (§3) Monocotyledonous and dicotyledonous test plants are grown in a greenhouse in plastics pots containing standard soil and at the 4- to 6-leaf stage are sprayed with an aqueous suspension or emulsion of the test substances of formula I, prepared from a 25% emulsifiable concentrate (Example F1, c) in WO 97/34485, pages 9 and 10), at a rate of application corresponding to 2000 g of active ingredient/ha (500 liters water/ha). The test plants are then grown on in the greenhouse under optimum conditions. After approximately 18 days' test duration, the test is evaluated in accordance with a scale of nine ratings (1=total damage, 9=no action). Ratings of from 1 to 4 (especially from 1 to 3) indicate good to very good herbicidal action.
as §2

Setaria [6] = test: Post-emergence herbicidal action (Example B2); conditions: 2000 g a.i./ha, sprayed at 4- to 6-leaf stage, evaluated after approximately 18 days, scale of nine ratings
Description: as §3, §2

Sinapis [7] = test: Post-emergence herbicidal action (Example B2); conditions: 2000 g a.i./ha, sprayed at 4- to 6-leaf stage, evaluated after approximately 18 days, scale of nine ratings
Description: as §3, §2

Stellaria [8] = test: Post-emergence herbicidal action (Example B2); conditions: 2000 g a.i./ha, sprayed at 4- to 6-leaf stage, evaluated after approximately 18 days, scale of nine ratings
Description: as §3, §2

Cn1nc(-c2c(Cl)cc(Cl)c(=O)n2CS(C)(=O)=O)c(Cl)c1OC(F)F [Example 1.152]
Pre-emergence action: Avena (rating) (Avena [1]): 1
Pre-emergence action: Setaria (rating) (Setaria [2]): 1
Pre-emergence action: Sinapis (rating) (Sinapis [3]): 1
Pre-emergence action: Stellaria (rating) (Stellaria [4]): 1
Post-emergence action: Avena (rating) (Avena [5]): 1
Post-emergence action: Setaria (rating) (Setaria [6]): 1
Post-emergence action: Sinapis (rating) (Sinapis [7]): 1
Post-emergence action: Stellaria (rating) (Stellaria [8]): 1

CCOC(=O)Cn1c(-c2nn(C)c(OC(F)F)c2Cl)c(F)cc(Cl)c1=O [Example 1.181]
Pre-emergence action: Avena (rating) (Avena [1]): 1
Pre-emergence action: Setaria (rating) (Setaria [2]): 1
Pre-emergence action: Sinapis (rating) (Sinapis [3]): 1
Pre-emergence action: Stellaria (rating) (Stellaria [4]): 1
Post-emergence action: Avena (rating) (Avena [5]): 1
Post-emergence action: Setaria (rating) (Setaria [6]): 1
Post-emergence action: Sinapis (rating) (Sinapis [7]): 1
Post-emergence action: Stellaria (rating) (Stellaria [8]): 1

Cn1nc(-c2c(F)cc(Cl)c(=O)n2CS(C)(=O)=O)c(Cl)c1OC(F)F [Example 1.153]
Pre-emergence action: Avena (rating) (Avena [1]): 1
Pre-emergence action: Setaria (rating) (Setaria [2]): 1
Pre-emergence action: Sinapis (rating) (Sinapis [3]): 1
Pre-emergence action: Stellaria (rating) (Stellaria [4]): 1
Post-emergence action: Avena (rating) (Avena [5]): 1
Post-emergence action: Setaria (rating) (Setaria [6]): 1
Post-emergence action: Sinapis (rating) (Sinapis [7]): 1
Post-emergence action: Stellaria (rating) (Stellaria [8]): 1

CSCn1c(-c2nn(C)c(OC(F)F)c2Cl)c(F)cc(Cl)c1=O [Example 1.147]
Pre-emergence action: Avena (rating) (Avena [1]): 1
Pre-emergence action: Setaria (rating) (Setaria [2]): 1
Pre-emergence action: Sinapis (rating) (Sinapis [3]): 1
Pre-emergence action: Stellaria (rating) (Stellaria [4]): 1
Post-emergence action: Avena (rating) (Avena [5]): 1
Post-emergence action: Setaria (rating) (Setaria [6]): 1
Post-emergence action: Sinapis (rating) (Sinapis [7]): 1
Post-emergence action: Stellaria (rating) (Stellaria [8]): 1

Cn1nc(-c2c(F)cc(Cl)c(=O)n2C[S+](C)[O-])c(Cl)c1OC(F)F (centres unmarked) [Example 1.150]
Pre-emergence action: Avena (rating) (Avena [1]): 1
Pre-emergence action: Setaria (rating) (Setaria [2]): 1
Pre-emergence action: Sinapis (rating) (Sinapis [3]): 1
Pre-emergence action: Stellaria (rating) (Stellaria [4]): 1
Post-emergence action: Avena (rating) (Avena [5]): 1
Post-emergence action: Setaria (rating) (Setaria [6]): 1
Post-emergence action: Sinapis (rating) (Sinapis [7]): 1
Post-emergence action: Stellaria (rating) (Stellaria [8]): 1

Cn1nc(-c2c(F)cc(Cl)c(=O)n2CC(=O)OCc2ccccc2)c(Cl)c1OC(F)F [Example 1.195]
Pre-emergence action: Avena (rating) (Avena [1]): 3
Pre-emergence action: Setaria (rating) (Setaria [2]): 1
Pre-emergence action: Sinapis (rating) (Sinapis [3]): 1
Pre-emergence action: Stellaria (rating) (Stellaria [4]): 1
Post-emergence action: Avena (rating) (Avena [5]): 1
Post-emergence action: Setaria (rating) (Setaria [6]): 1
Post-emergence action: Sinapis (rating) (Sinapis [7]): 1
Post-emergence action: Stellaria (rating) (Stellaria [8]): 1

Cn1nc(-c2c(F)cc(Cl)c(=O)n2Cc2ccccc2)c(Cl)c1OC(F)F [Example 1.111]
Pre-emergence action: Avena (rating) (Avena [1]): 2
Pre-emergence action: Setaria (rating) (Setaria [2]): 1
Pre-emergence action: Sinapis (rating) (Sinapis [3]): 1
Pre-emergence action: Stellaria (rating) (Stellaria [4]): 1
Post-emergence action: Avena (rating) (Avena [5]): 2
Post-emergence action: Setaria (rating) (Setaria [6]): 1
Post-emergence action: Sinapis (rating) (Sinapis [7]): 1
Post-emergence action: Stellaria (rating) (Stellaria [8]): 2

C#CCn1c(-c2nn(C)c(C(F)(F)F)c2Br)c(F)cc(Cl)c1=O [Example 10.100]
Pre-emergence action: Avena (rating) (Avena [1]): 1
Pre-emergence action: Setaria (rating) (Setaria [2]): 1
Pre-emergence action: Sinapis (rating) (Sinapis [3]): 1
Pre-emergence action: Stellaria (rating) (Stellaria [4]): 1
Post-emergence action: Avena (rating) (Avena [5]): 1
Post-emergence action: Setaria (rating) (Setaria [6]): 2
Post-emergence action: Sinapis (rating) (Sinapis [7]): 1
Post-emergence action: Stellaria (rating) (Stellaria [8]): 1

CCOC(=O)CCCn1c(-c2nn(C)c(OC(F)F)c2Cl)c(F)cc(Cl)c1=O [Example 1.205]
Pre-emergence action: Avena (rating) (Avena [1]): 1
Pre-emergence action: Setaria (rating) (Setaria [2]): 1
Pre-emergence action: Sinapis (rating) (Sinapis [3]): 1
Pre-emergence action: Stellaria (rating) (Stellaria [4]): 1
Post-emergence action: Avena (rating) (Avena [5]): 1
Post-emergence action: Setaria (rating) (Setaria [6]): 1
Post-emergence action: Sinapis (rating) (Sinapis [7]): 1
Post-emergence action: Stellaria (rating) (Stellaria [8]): 1

CCC(=O)Cn1c(-c2nn(C)c(OC(F)F)c2Cl)c(F)cc(Cl)c1=O [Example 1.302]
Pre-emergence action: Avena (rating) (Avena [1]): 1
Pre-emergence action: Setaria (rating) (Setaria [2]): 1
Pre-emergence action: Sinapis (rating) (Sinapis [3]): 1
Pre-emergence action: Stellaria (rating) (Stellaria [4]): 1
Post-emergence action: Avena (rating) (Avena [5]): 1
Post-emergence action: Setaria (rating) (Setaria [6]): 1
Post-emergence action: Sinapis (rating) (Sinapis [7]): 1
Post-emergence action: Stellaria (rating) (Stellaria [8]): 1

CCS(=O)(=O)CCn1c(-c2nn(C)c(OC(F)F)c2Cl)c(F)cc(Cl)c1=O [Example 1.168]
Pre-emergence action: Avena (rating) (Avena [1]): 1
Pre-emergence action: Setaria (rating) (Setaria [2]): 1
Pre-emergence action: Sinapis (rating) (Sinapis [3]): 1
Pre-emergence action: Stellaria (rating) (Stellaria [4]): 1
Post-emergence action: Avena (rating) (Avena [5]): 1
Post-emergence action: Setaria (rating) (Setaria [6]): 1
Post-emergence action: Sinapis (rating) (Sinapis [7]): 1
Post-emergence action: Stellaria (rating) (Stellaria [8]): 1

Cn1nc(-c2c(F)cc(Cl)c(=O)n2C)c(Cl)c1C(F)(F)F [Example 9.002]
Pre-emergence action: Avena (rating) (Avena [1]): 1
Pre-emergence action: Setaria (rating) (Setaria [2]): 3
Pre-emergence action: Sinapis (rating) (Sinapis [3]): 1
Pre-emergence action: Stellaria (rating) (Stellaria [4]): 1
Post-emergence action: Avena (rating) (Avena [5]): 1
Post-emergence action: Setaria (rating) (Setaria [6]): 3
Post-emergence action: Sinapis (rating) (Sinapis [7]): 1
Post-emergence action: Stellaria (rating) (Stellaria [8]): 1

C#CCn1c(-c2nn(CC)c(OC(F)F)c2Cl)c(F)cc(Cl)c1=O [Example 7.100]
Pre-emergence action: Avena (rating) (Avena [1]): 1
Pre-emergence action: Setaria (rating) (Setaria [2]): 1
Pre-emergence action: Sinapis (rating) (Sinapis [3]): 1
Pre-emergence action: Stellaria (rating) (Stellaria [4]): 1
Post-emergence action: Avena (rating) (Avena [5]): 1
Post-emergence action: Setaria (rating) (Setaria [6]): 1
Post-emergence action: Sinapis (rating) (Sinapis [7]): 1
Post-emergence action: Stellaria (rating) (Stellaria [8]): 1

Cn1nc(-c2c(F)cc(Cl)c(=O)n2CCc2ccccc2)c(Cl)c1OC(F)F [Example 1.105]
Pre-emergence action: Avena (rating) (Avena [1]): 1
Pre-emergence action: Setaria (rating) (Setaria [2]): 1
Pre-emergence action: Sinapis (rating) (Sinapis [3]): 1
Pre-emergence action: Stellaria (rating) (Stellaria [4]): 1
Post-emergence action: Avena (rating) (Avena [5]): 1
Post-emergence action: Setaria (rating) (Setaria [6]): 2
Post-emergence action: Sinapis (rating) (Sinapis [7]): 1
Post-emergence action: Stellaria (rating) (Stellaria [8]): 1

CCCCn1c(-c2nn(C)c(OC(F)F)c2Cl)c(F)cc(Cl)c1=O [Example 1.010]
Pre-emergence action: Avena (rating) (Avena [1]): 1
Pre-emergence action: Setaria (rating) (Setaria [2]): 1
Pre-emergence action: Sinapis (rating) (Sinapis [3]): 1
Pre-emergence action: Stellaria (rating) (Stellaria [4]): 1
Post-emergence action: Avena (rating) (Avena [5]): 1
Post-emergence action: Setaria (rating) (Setaria [6]): 1
Post-emergence action: Sinapis (rating) (Sinapis [7]): 1
Post-emergence action: Stellaria (rating) (Stellaria [8]): 1

COn1c(-c2nn(C)c(OC(F)F)c2Cl)c(F)cc(Cl)c1=O [Example 1.400]
Pre-emergence action: Avena (rating) (Avena [1]): 1
Pre-emergence action: Setaria (rating) (Setaria [2]): 1
Pre-emergence action: Sinapis (rating) (Sinapis [3]): 1
Pre-emergence action: Stellaria (rating) (Stellaria [4]): 1
Post-emergence action: Avena (rating) (Avena [5]): 1
Post-emergence action: Setaria (rating) (Setaria [6]): 2
Post-emergence action: Sinapis (rating) (Sinapis [7]): 1
Post-emergence action: Stellaria (rating) (Stellaria [8]): 1

Cn1nc(-c2c(F)cc(Cl)c(=O)n2C)c(Cl)c1OC(F)F [Example 1.002]
Pre-emergence action: Avena (rating) (Avena [1]): 1
Pre-emergence action: Setaria (rating) (Setaria [2]): 1
Pre-emergence action: Sinapis (rating) (Sinapis [3]): 1
Pre-emergence action: Stellaria (rating) (Stellaria [4]): 1
Post-emergence action: Avena (rating) (Avena [5]): 1
Post-emergence action: Setaria (rating) (Setaria [6]): 1
Post-emergence action: Sinapis (rating) (Sinapis [7]): 1
Post-emergence action: Stellaria (rating) (Stellaria [8]): 1

C#CCn1c(-c2nn(C)c(OC(F)F)c2Cl)c(F)cc(Cl)c1=O [Example 1.100]
Pre-emergence action: Avena (rating) (Avena [1]): 1
Pre-emergence action: Setaria (rating) (Setaria [2]): 1
Pre-emergence action: Sinapis (rating) (Sinapis [3]): 1
Pre-emergence action: Stellaria (rating) (Stellaria [4]): 1
Post-emergence action: Avena (rating) (Avena [5]): 1
Post-emergence action: Setaria (rating) (Setaria [6]): 1
Post-emergence action: Sinapis (rating) (Sinapis [7]): 1
Post-emergence action: Stellaria (rating) (Stellaria [8]): 1

Cn1nc(-c2c(F)cc(Cl)c(=O)n2CCCc2ccccc2)c(Cl)c1OC(F)F [Example 1.106]
Pre-emergence action: Avena (rating) (Avena [1]): 2
Pre-emergence action: Setaria (rating) (Setaria [2]): 1
Pre-emergence action: Sinapis (rating) (Sinapis [3]): 1
Pre-emergence action: Stellaria (rating) (Stellaria [4]): 1
Post-emergence action: Avena (rating) (Avena [5]): 3
Post-emergence action: Setaria (rating) (Setaria [6]): 3
Post-emergence action: Sinapis (rating) (Sinapis [7]): 1
Post-emergence action: Stellaria (rating) (Stellaria [8]): 1
